Laboratory results published in US20230192648A1, “IMMUNOREGULATORY COMPOUNDS” (NIMML INSTITUTE, priority 2021, published 2023).
Entries after “also recorded” stand apart in the source; their conditions may differ.

Experiments:
influenza A (H1N1) = test: Influenza A (H1N1) infection of mice, survival; assay type: in vivo, mouse; settings: 25 mg/kg orally daily, FIG. 4; for delay of first mortality: vehicle mortality beginning at day 6
Experimental: Wild type C57BL/6 mice were anesthetized by isoflurane inhalation. Mice were infected with influenza A (H1N1) intranasally at a challenge titer of 2 x 10^4 TCID50/mL. Mice were treated daily with NIM-1001-2, NIM-1001-8, or NIM-1001-9 at a dose of 25 mg/kg orally via gavage. Mice were monitored daily.

[1] = tested on: DSS model of acute inflammatory bowel disease; test: DSS model of acute inflammatory bowel disease; assay type: in vivo, mouse; settings: oral, 10 mg/kg once daily, relative to vehicle; for proportion of CD4+ T cells in the colonic lamina propria: FIG. 3A; for F4/80hi macrophages (colon): FIG. 3C
Experimental: DSS model. Mice were given DSS in drinking water for seven days. At project initiation, mice were 8 weeks of age and began dosing 24 hours after being placed on DSS. Mice were weighed and scored daily for symptoms of disease (diarrhea, rectal bleeding, rectal inflammation, overall behavior). Treatments were prepared within a 0.5% methylcellulose (12-15 cP) solution. The dosage used was 10 mg/kg delivered once daily. Flow Cytometry. Colons were collected into RPMI/FBS buffer containing collagenase (300 U/mL) and DNase (50 U/mL) for digestion. Tissues were digested for 60 minutes under stirring at 37° C. Resultant cellular suspensions were filtered through 100 µm strainers, centrifuged (300 x g, 8 min), and washed in fresh RPMI. Following filtration of the resulting single cell suspensions, immune cells were purified by Percoll gradient of cell-containing 40% Percoll overlayed onto 70% Percoll solution. After centrifugation, interphase was collected and washed to obtain enriched colonic lamina propria cell fractions. Cells were labeled with mixtures of extracellular (CD45, CD3, CD4, CD8, CD25, F4/80, CD11b, MHCII) antibodies in a sequential live staining in 96-well plates. Data was acquired using a FACS Celesta flow cytometer with FACSDiva software.

[2] = tested on: bm12 model of systemic inflammation; test: bm12 mouse model of systemic inflammation; assay type: in vivo
[3] = tested on: NOD model of Sjogren's syndrome; test: NOD mouse model of Sjogren's syndrome; assay type: in vivo; settings: relative to vehicle, FIG. 10
Experimental: NOD model. Ten-week-old female NOD mice were treated with vehicle or NIM-1001-8 (2 or 50 mg/kg) daily by oral gavage for four weeks. After conclusion of the treatment period, submandibular glands were excised and fixed in formalin. Glands were processed and H&E-stained slides were prepared. Slides were scored by blinded reviewer, on a 0 to 4 composite scale encompassing level of inflammation and disease.

[4] = tested on: MRL/lpr model of systemic lupus erythematosus; test: MRL/lpr genetic mouse model of SLE; assay type: in vivo; settings: daily orogastric gavage from 12 weeks of age
Experimental: Mouse model. Female MRL/lpr mice were obtained at 8 weeks of age. Mice were followed for four weeks for the development of proteinuria. […] Treatment with NIM-1001-8, or vehicle control, were administered by orogastric gavage daily, beginning at 12 weeks of age, in a 0.5% methylcellulose suspension.
(§1) Immunological analysis. Urine was collected for assay for protein content to test for kidney function. Spleens were excised, crushed and filtered to provide a cellular suspension. Red blood cells were lysed. Cells were labeled with mixtures of extracellular (CD45, CD3, CD4, CD8, CD25) and intracellular (FOXP3, IL17) antibodies in a sequential live staining in 96-well plates in preparation for flow cytometry. Data was captured on a BD FACS Celesta and analyzed using FacsDiva.

[5] = tested on: genetic model of Alzheimer's disease; test: Genetic mouse model of Alzheimer's disease; assay type: in vivo; settings: oral 10 mg/kg for eight weeks, relative to vehicle
Experimental: Mouse model. Genetically modified mice that spontaneously develop cognitive impairment at 4 months of age and histological signs of disease at 6 months of age were randomized into the project at 24 weeks of age. Mice were orally treated with vehicle or NIM-1001-8 (10 mg/kg) for eight weeks. After eight weeks of treatment, mice were evaluated using a light-dark test to measure the time spent in the light relative to the dark. This is a measure of an anxiety response. Genetically modified mice were compared to age-matched wild-type mice (negative control).
Flow Cytometry. Brains were collected into RPMI/FBS buffer containing collagenase (300 U/mL) and DNase (50 U/mL) for digestion. Tissues were digested for 30 minutes under stirring at 37° C. Resultant cellular suspensions were filtered through 100 µm strainers, centrifuged (300 x g, 8 min), and washed in fresh RPMI. Following filtration of the resulting single cell suspensions, immune cells were purified by Percoll gradient of cell-containing 40% Percoll overlayed onto 70% Percoll solution. After centrifugation, interphase was collected and washed to obtain enriched immune cell fractions. Cells were labeled with mixtures of extracellular (CD45, CD3, CD4, CD8, CD11b, Gr1) and intracellular (IL17) antibodies in a sequential live staining in 96-well plates. Data was acquired using a FACS Celesta flow cytometer with FACSDiva software.

[6] = tested on: experimental autoimmune encephalomyelitis; test: Mouse model of experimental autoimmune encephalomyelitis (adoptive transfer of MOG-primed splenocytes); assay type: in vivo; settings: oral 20 mg/kg from 7 days post-transfer
Experimental: Mouse model. C57BL6 mice were challenged at 10- to 16-weeks of age with MOG immunization with complete Freund’s adjuvant. MOG emulsion was administered to the cervical region and the hind flank at 100 µL per site to each mouse. After 10 days, spleens were harvested. Isolated splenocytes were cultured in the presence of MOG, IL-12 and anti-interferon gamma for 3 days. Splenocytes were then washed and injected into recipient mice at approximately 20 million cells per mouse. Oral treatment with NIM-1001-8 (20 mg/kg) or vehicle was initiated at 7 days post-transfer. Mice were be scored (0-3) daily for disease activity (coordination, gait, paralysis).
Flow Cytometry. Spinal cords were excised and digested with papain and DNase. Immune cells were purified by Percoll gradient. Cells were labeled with mixtures of extracellular (CD45, CD3, CD4, CD8, CD25) and intracellular (IL17) antibodies in a sequential live staining in 96-well plates in preparation for flow cytometry. Data was captured on a BD FACS Celesta and analyzed using FacsDiva.
Histology. Sections of the spinal cord from the lumbar region were extracted and fixed in formalin. Samples were embedded in paraffin and sectioned. By immunohistochemistry, samples were stained for the presence of glial fibrillary acidic protein (GFAP). Slides were assessed microscopically and scored (0-3) for the intensity and frequency of GFAP positive cells. GFAP is a common protein marker for astrocytes in the central nervous system

[7] = tested on: IMQ-induced model of psoriasis; test: Imiquimod (IMQ) induced model of psoriasis; assay type: in vivo, mouse; settings: oral 20 mg/kg daily
Experimental: IMQ-induced model. C57BL/6 mice were anesthetized, shaved, and briefly exposed to depilatory cream on the surface of the back. Mice were given three days to recover from the procedure prior to entry to the study. After 3 days, mice were challenged with approximately 60 mg of […] imiquimod cream daily by spreading cream over the shaved area. Oral treatment with vehicle or NIM-1001-8 (20 mg/kg) occurred daily.
Analysis. Spleens were excised and crushed by microscope slides. Red blood cells were hypotonically lysed from the resultant suspension. Samples were filtered, washed and centrifuged prior to staining. Cells were labeled with mixtures of extracellular (CD45, CD3, CD4, CD8, CD25, F4/80, CD11b, MHCII) and intracellular (TNF, IL17) antibodies in a sequential live staining in 96-well plates in preparation for flow cytometry. Data was captured on a BD FACS Celesta and analyzed using FacsDiva.

[8] = tested on: MPTP induced model of Parkinson's disease; test: MPTP induced mouse model of Parkinson's disease; assay type: in vivo; settings: oral 25 mg/kg once daily
Experimental: Mouse model. Mice were administered intraperitoneal injections of 1-methyl-4-phenyl-1,2,3,6-tetrahydropyridine (MPTP) and probenecid three times weekly for 4 weeks. In the second week of injections, oral treatment with vehicle or NIM-1001-8 (25 mg/kg) was initiated once daily. After four weeks of injections, motor control was assessed by counting the number of step errors during a challenging beam test. Mice challenged with MPTP were compared to mice challenged with a sham injection (negative control).
as §1, with “Flow Cytometry.” for “Immunological analysis. Urine was collected for assay for protein content to test for kidney function.”, “(IL21,” for “(FOXP3,”

[9] = oral gavage daily, 20 mg/kg/day, relative to vehicle; FIG. 2A
[10] = oral gavage daily, 20 mg/kg/day, relative to vehicle; FIG. 2C
[11] = oral gavage daily, 20 mg/kg/day, relative to vehicle, FIG. 2C

## CCc1noc(/C=C/c2cncc(Oc3cc(-c4nc(C)no4)cc(Cl)n3)c2C)n1 [NIM-1001-2]
Influenza A (H1N1); vehicle 25% survival by day 10
  survival at day 10 (fraction of group): two-thirds
Influenza A (H1N1)
  delay of first mortality: one day
[1]
  proportion of CD4+ T cells in the colonic lamina propria: reduced
[2]; [9]
  spleen size in proportion to overall body weight: significantly reduced
[2]; [10]
  proportion of CD25+ FOXP3+ regulatory T cells in the spleen: significantly increased

## CCOC(=O)/C=C/c1cncc(Oc2cc(C(=O)NC)cc(Cl)n2)c1C [NIM-1001-4]
[2]; [11]
  proportion of CD25+ FOXP3+ regulatory T cells in the spleen: significantly increased; also recorded: largest magnitude of increase
[2]; [9]
  spleen size in proportion to overall body weight: reduced the normalized spleen size at a lesser degree

## CCOC(=O)/C=C/c1cncc(Oc2cc(C(=O)OC)cc(Cl)n2)c1C [NIM-1001-8, methyl (E)-2-chloro-6-((5-(3-ethoxy-3-oxoprop-1-en-1-yl)-4-methylpyridin-3-yl)oxy)isonicotinate]
[3]; 2 mg/kg daily by oral gavage for four weeks
  histological severity of disease in the submandibular glands (score 0 to 4): significantly reduced
[3]; 50 mg/kg daily by oral gavage for four weeks
  histological severity of disease in the submandibular glands (score 0 to 4): significantly reduced
Influenza A (H1N1); vehicle 25% survival by day 10
  survival at day 10: 83%
Influenza A (H1N1)
  delay of first mortality: two days
[4]; relative to vehicle, FIG. 6A
  urine protein levels, reduction: more than two-fold
[4]; P < 0.05, FIG. 6B
  splenic CD25+ FOXP3+ regulatory T cells: significant increase
[4]; P < 0.05, FIG. 6C
  splenic CD4+ IL17+ cells: significant decrease
[5]; FIG. 7A, 10 mg/kg
  time spent in the light (light-dark test): significantly increased; also recorded: restored the time to equal that of the negative control group
[5]; FIG. 7B
  proportion of neutrophils in the brain: decreased
[5]; FIG. 7C
  proportion of CD4+ IL17+ T cells in the brain: decreased
[6]; FIG. 5A
  overall disease severity (score 0-3): amelioration
[6]; FIG. 5B
  proportion of CD4+ IL17+ T cells in the spinal cord: decreased
[6]; FIG. 5C
  GFAP positive staining in the spinal cord: decreased
[7]; relative to vehicle, FIG. 9A
  proportion of TNF+ CD4+ T cells in the spleen: significantly reduced
[7]; relative to vehicle, FIG. 9B
  proportion of IL17+ CD4+ T cells in the spleen: significantly reduced
[7]; FIG. 9C
  proportion of F4/80hi inflammatory macrophages: decreased
[1]
  proportion of CD4+ T cells in the colonic lamina propria: reduced
  F4/80hi macrophages (colon): significant reductions
[2]; [11]
  proportion of CD25+ FOXP3+ regulatory T cells in the spleen: significantly increased; also recorded: largest magnitude of increase
[2]; [9]
  spleen size in proportion to overall body weight: significantly reduced
[8]; relative to vehicle, FIG. 8A
  number of step errors during a challenging beam test: significantly reduced; also recorded: near complete abrogation of MPTP effects
[8]; P < 0.05, FIG. 8B
  CD4+ IL21+ T cells within the spleen: significant reductions
[8]; P < 0.05, FIG. 8C
  CD4+ IL17+ T cells within the spleen: significant reductions

## CCNC(=O)/C=C/c1cncc(Oc2nccc(C(=O)NC)n2)c1C [NIM-1001-9]
Influenza A (H1N1); vehicle 25% survival by day 10
  survival at day 10 (fraction of group): two-thirds
Influenza A (H1N1)
  delay of first mortality: one day
[2]; [9]
  spleen size in proportion to overall body weight: significantly reduced
[2]; [10]
  proportion of CD25+ FOXP3+ regulatory T cells in the spleen: significantly increased

## CCOC(=O)/C=C/c1cncc(Nc2cc(C(=O)OC)cc(Cl)n2)c1 [NIM-1001-10]
[2]; [9]
  spleen size in proportion to overall body weight: reduced the normalized spleen size at a lesser degree

## CCc1noc(/C=C/c2cncc(Nc3cc(-c4nc(C)no4)cc(Cl)n3)c2)n1 [NIM-1001-11]
[1]
  proportion of CD4+ T cells in the colonic lamina propria: reduced
  F4/80hi macrophages (colon): significant reductions

## CCNC(=O)/C=C/c1cncc(Nc2nccc(C(=O)NC)n2)c1 [NIM-1001-12]
[1]
  proportion of CD4+ T cells in the colonic lamina propria: reduced
  F4/80hi macrophages (colon): significant reductions
[2]; [9]
  spleen size in proportion to overall body weight: significantly reduced
[2]; [10]
  proportion of CD25+ FOXP3+ regulatory T cells in the spleen: significantly increased
